# From paper PMC11645656, “MRGPRX4 mediates phospho-drug associated pruritus in a humanized mouse model” (Science translational medicine, 2024)
# Values joined by “and” are separate entries in the source; they are usually repeats but may differ in a detail not shown here. Identical values can stand only once.
# Key:
# Format in all cases: cell-based
# MRGPRX4 S83L (L83) = MRGPRX4 S83L (L83) (Homo sapiens, UniProt Q96LA9); assay: Calcium mobilization assay (FLIPR), S83L MRGPRX4 transiently expressed in HEK293T cells; set-up: expressed in transfected cells; host or cells: HEK293T, transient; settings: 2e-5 M, single replicate
# Chain of MRGPRX4 S83L (L83) (Q96LA9 whole entry, stated change not applied): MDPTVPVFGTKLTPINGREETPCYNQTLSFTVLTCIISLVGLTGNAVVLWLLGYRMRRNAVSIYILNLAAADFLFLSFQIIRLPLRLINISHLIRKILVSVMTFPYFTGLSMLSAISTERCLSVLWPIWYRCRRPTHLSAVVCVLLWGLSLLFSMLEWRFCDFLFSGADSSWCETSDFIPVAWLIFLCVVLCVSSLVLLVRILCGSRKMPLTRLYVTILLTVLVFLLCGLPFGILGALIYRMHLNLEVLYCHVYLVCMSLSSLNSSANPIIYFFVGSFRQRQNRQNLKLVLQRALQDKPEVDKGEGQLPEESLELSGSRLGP
# Excerpt: (§1) Fig. 4. […] Hydrogen bond is shown as cyan dashed lines. […] Data are from three independent experiments, performed in triplicate. (E) pEC50 plots of various agonists toward S83- and L83-MRGPRX4 through calcium mobilization assay. […] Each data point represents an independent experiment, performed in triplicate. The extra sum-of-square F test was used to examine the difference in EC50 values. One-sided t-test was used for nateglinide. *p< 0.05, **p< 0.01 and ***p< 0.001. ns = no statistical significance. Both (D) and (E) are reported as the mean ± SEM. N.D.= no detectable response ≤ 100 μM.
# (§2) HEK293 cells and MRGPRX4 stably expressed HEK293 cells were seeded in 100 μl culture media on 96-well plates at a density of 40,000 cells per well and incubated overnight. The next day, the media were replaced with a dye-loading solution from the FLIPR Calcium 5 assay kit (Molecular Devices), diluted in Hank's Balanced Salt Solution (HBSS) with 20 mM HEPES, pH 7.4. After 1 h of incubation at 37°C, cells were allowed to recover for 10 min in the dark at room temperature prior to performing intracellular calcium mobilization assay in a Flexstation-3 instrument with SoftMax®Pro 7.1 software (Molecular Devices). Serial concentrations of tested drugs were prepared in HBSS/HEPES solution at 3X concentration. […] Compounds were tested in triplicates and the signals were averaged. Responses were determined by subtracting the minimum signal (at the baseline before adding the drug) from the maximum signal (obtained after drug stimulation). Four-parameter logistic (4PL) curve fit was used to plot the dose-response curves. […] Both dose-response curve fitting and EC50s calculation are computed with GraphPad Prism software (version: 6.o or above).
# (§3) To generate murine Mrgprs expressing cells, HEK293T cells (ATCC) were seeded on poly-D-lysine coated 96 well plate at 25,000 cells per well one day prior to transfection. HEK293T cells were transiently co-transfected with the mammalian expression plasmids carrying cDNA encoding the murine Mrgpr genes and plasmid inserted with cDNA encoding murine α-subunit of the heterotrimeric G15 protein (Gα15) in triplicates using Lipofectamine LTX reagents (Thermo Scientific). To generate WT, S83L, and alanine mutant MRGPRX4-expressing cells, HEK293T cells were seeded on poly-D-lysine coated 384 well plate at 12,000 cells per well one day prior to transfection. Mammalian expression plasmids pLX304 (vector from Addgene) carrying different MRGPRX4 coding sequences were transiently transfected into HEK293T cells in triplicates with Lipofectamine LTX reagents (Thermo Scientific). Intracellular calcium mobilization assays were performed after one day of transfection. Murine Mrgprs tested include Mrgpra1, Mrgpra2a, Mrgpra2b, Mrgpra3, Mrgpra4, Mrgpra6, Mrgpra9, Mrgpra10, Mrgpra11, Mrgpra12, Mrgpra14, Mrgprb5, Mrgprb6, Mrgprb10, Mrgprb11, and Mrgprc11. WT and mutant MRGPRX4 constructs tested include WT, S83L, R82A, R86A, R95A, W158A, Y250A, and Y254A.
# MRGPRX4 WT (S83) [1] = target: T1, MRGPRX4 WT (S83) (Homo sapiens, UniProt Q96LA9, L83S); assay: Calcium mobilization assay (FLIPR), WT (S83) MRGPRX4 transiently expressed in HEK293T cells; set-up: expressed in transfected cells; host or cells: HEK293T, transient; settings: for fig. S8 response (normalized), concentration-response: WT, single replicate
# T1 sequence (Q96LA9 whole entry L83S): as the sequence (Q96LA9 whole entry, stated change not applied) above, with L83S counted along it
# Excerpt: as §1, §2, §3
# MRGPRX4 WT (S83) [2] = target: T1, MRGPRX4 WT (S83); assay: PRESTO-Tango β-arrestin recruitment assay, HTLA cells stably expressing WT (S83) MRGPRX4; set-up: expressed in transfected cells; settings: HTLA::MRGPRX4
# Procedure: HTLA cells, a cell line derived from HEK293 and engineered to stably express a tTA-dependent luciferase reporter and a β-arrestin2-TEV fusion gene, were generously provided by Richard Axel's laboratory. HTLA cells were cultured in growth medium containing 2 μg/ml puromycin and 100 μg/ml hygromycin B in 5% CO2 at 37 °C. Stably MRGPRX4-expressing HTLA cells were generated by transfecting pcDNA3.1(+)-Zeo containing MRGPRX4-Tango construct (either with WT or S83L mutant sequence) into HTLA cells with Lipofectamine 3000 and selecting the successful transfected clones with Zeocin.
# HTLA cells stably expressing either WT or S83L MRGPRX4 were seeded in PDL-coated 96-well white clear bottom cell culture plates with DMEM containing 10% FBS, at a density of 35,000 cells per well and were allowed to attach to the bottom of the wells overnight. The next day, growth medium was replaced with 100 μl of serum-free medium containing the tested drugs at various concentrations, and the cells were then incubated at 37°C for 24 h. On the following day, media with drug solutions was removed and 50 μl per well of Bright-Glo™ Reagent from Bright-Glo™ Luciferase Assay System (Promega) was loaded. The plate was incubated at room temperature in the dark for 5 min, and the relative luminescence units were measured using the Flexstation-3 instrument with SoftMax®Pro 7.1 software (Molecular Devices). Dose response curves and EC50s were analyzed as described above.
# Data are from at least two independent experiments, each performed in
# triplicate, and are depicted as mean ± SEM.
# arrestin2-TEV fusion gene and a tTA -dependent luciferase reporter.
# MRGPRX4 (S83) = target: T2, MRGPRX4 (S83) (Homo sapiens, UniProt Q96LA9, L83S); assay: EC50 determination, intracellular calcium mobilization in MRGPRX4 stably expressed HEK293 cells (FLIPR Calcium 5, Flexstation-3); settings: propofol series, individual replicate values
# T2 construct: expressed in transfected cells
# T2 sequence (Q96LA9 whole entry L83S): as the sequence (Q96LA9 whole entry, stated change not applied) above, with L83S counted along it
# Summary of the method: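 HEK293 cells stably expressing receptor (parental HEK293 alongside) loaded with Calcium 5 dye in HBSS/20 mM HEPES, pH 7.4, 1 h at 37 °C, then compounds added. Response = peak minus pre-drug baseline, triplicates averaged; EC50 from 4PL fit.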
# HTLA cells = assay: PRESTO-Tango β-arrestin recruitment assay, parental HTLA cells without MRGPRX4 (control, fig. S1)
# Excerpt: Supplement NIHMS2038790-supplement-table.xlsx, sheet "fig. S1" | column: Concentration (M)
structure (smiles),measurement,setting,value
C[C@H](CCC(=O)O)[C@H]1CC[C@H]2[C@@H]3CC[C@@H]4C[C@H](O)CC[C@]4(C)[C@H]3C[C@H](O)[C@]12C [Deoxycholic Acid],"fig. S8 response (normalized), concentration-response",MRGPRX4 S83L (L83),87.5629
same,"fig. S8 response (normalized), concentration-response",MRGPRX4 WT (S83) [1]; 1.95e-8 M,6.035
same,"fig. S8 response (normalized), concentration-response",MRGPRX4 WT (S83) [1]; 3.91e-8 M,8.843
same,Potency at S83- vs L83-MRGPRX4,"MRGPRX4 WT (S83) [1]; calcium mobilization, compared with S83L (A17)",equal potency
CC(C)c1cccc(C(C)C)c1O [Propofol],"PRESTO-Tango response (fig. S1), single replicate",MRGPRX4 WT (S83) [2]; concentration 9.77e-7 M,0.1179 and 0.1434 and 0.1128 and 0.0576 and 0.1584 and 0.1581 and 0.09558 and 0.2113 and 0.06727
same,"PRESTO-Tango response (fig. S1), single replicate",MRGPRX4 WT (S83) [2]; concentration 1.95e-6 M,0.1108 and 0.0929 and 0.1168 and 0.004899 and 0.1204 and 0.1953 and 0.1172 and 0.1059 and 0.09744
same,"PRESTO-Tango response (fig. S1), single replicate",MRGPRX4 WT (S83) [2]; concentration 3.91e-6 M,0.09107 and 0.1491 and 0.1505 and 0.154 and 0.1534 and 0.08321 and 0.05164 and 0.03127 and 0.3077
same,"PRESTO-Tango response (fig. S1), single replicate",MRGPRX4 WT (S83) [2]; concentration 7.81e-6 M,0.1035 and 0.1156 and 0.1105 and 0.05878 and 0.1844 and 0.08643 and 0.09982 and 0.0447 and 0.1851
same,"PRESTO-Tango response (fig. S1), single replicate",MRGPRX4 WT (S83) [2]; concentration 1.56e-5 M,0.1135 and 0.116 and 0.1027 and 0.1824 and 0.02561 and 0.1241 and 0.06605 and 0.09721 and 0.1689
same,"PRESTO-Tango response (fig. S1), single replicate",MRGPRX4 WT (S83) [2]; concentration 3.13e-5 M,0.1268 and 0.1068 and 0.1143 and 0.2727 and 0.04775 and 0.02749 and 0.1181 and 0.1469 and 0.08291
same,"PRESTO-Tango response (fig. S1), single replicate",MRGPRX4 WT (S83) [2]; concentration 6.25e-5 M,0.1552 and 0.07997 and 0.0929 and 0.03397 and 0.1353 and 0.1588 and 0.2302 and 0.01074 and 0.08707
same,"PRESTO-Tango response (fig. S1), single replicate",MRGPRX4 WT (S83) [2]; concentration 0.00025 M,0.109 and 0.07615 and 0.1012 and 0.1462 and 0.1013 and 0.03885 and 0.188 and 0.002674 and 0.09569
same,"PRESTO-Tango response (fig. S1), single replicate",MRGPRX4 WT (S83) [2]; concentration 0.0005 M,0.06978 and 0.08316 and 0.1048 and 0.1033 and 0.11 and 0.04438 and 0.05461 and 0.1469 and 0.05616
same,"PRESTO-Tango response (fig. S1), single replicate",MRGPRX4 WT (S83) [2]; concentration 0.001 M,0.07852 and 0.088 and 0.0856 and 0.07264 and 0.06166 and 0.1178 and 0.08358 and 0.132 and 0.03659
same,"Fig. 1D dose-response, calcium response at Concentration (M)",MRGPRX4 (S83); 9.76563e-7 M,0.414 and 3.255 and 2.599 and 1.616 and 1.795 and 1.237 and 1.276 and 3.496 and 2.341
same,"Fig. 1D dose-response, calcium response at Concentration (M)",MRGPRX4 (S83); 1.95313e-6 M,1.458 and 0.513 and 0.300 and 1.914 and 1.276 and 2.203 and 3.251 and -1.964 and 1.519
same,"Fig. 1D dose-response, calcium response at Concentration (M)",MRGPRX4 (S83); 3.90625e-6 M,5.819 and 7.751 and 4.466 and 7.090 and 4.830 and 4.639 and 13.006 and -1.259 and 2.816
same,"Fig. 1D dose-response, calcium response at Concentration (M)",MRGPRX4 (S83); 7.8125e-6 M,1.962 and 0.130 and 1.580 and 1.041 and 3.162 and 0.591 and -0.388 and 5.581 and 3.691
same,"Fig. 1D dose-response, calcium response at Concentration (M)",MRGPRX4 (S83); 1.5625e-5 M,1.132 and 9.188 and 9.688 and 3.963 and 8.123 and 8.863 and 0.133 and 12.778 and 11.454
same,"Fig. 1D dose-response, calcium response at Concentration (M)",MRGPRX4 (S83); 3.125e-5 M,25.991 and 46.958 and 31.996 and 27.619 and 18.338 and 28.954 and 31.875 and 17.124 and 5.004
same,"Fig. 1D dose-response, calcium response at Concentration (M)",MRGPRX4 (S83); 6.25e-5 M,7.246 and 18.605 and 32.559 and 31.367 and 1.645 and 36.351 and 11.712 and 17.508 and 39.720
same,"Fig. 1D dose-response, calcium response at Concentration (M)",MRGPRX4 (S83); 0.00025 M,30.626 and 14.912 and 5.366 and 49.034 and 15.438 and 25.512 and 22.768 and 21.559 and 24.302
same,"Fig. 1D dose-response, calcium response at Concentration (M)",MRGPRX4 (S83); 0.0005 M,10.617 and 40.711 and 21.943 and 10.261 and 44.385 and 12.114 and 18.721 and 45.754 and 25.261
same,"Fig. 1D dose-response, calcium response at Concentration (M)",MRGPRX4 (S83); 0.001 M,34.500 and 40.615 and 40.058 and 10.462 and 33.199 and 24.127 and 20.241 and 39.351 and 8.604
same,"PRESTO-Tango response (fig. S1), single replicate",HTLA cells; concentration 9.77e-7 M,0.002641 and 0.003228 and 0.001921 and 0.003818 and 0.005628 and 0.002399 and 0.002922 and 0.00482 and 0.001506
same,"PRESTO-Tango response (fig. S1), single replicate",HTLA cells; concentration 1.95e-6 M,0.01304 and 0.00742 and 0.001861 and 0.009318 and 0.007315 and 0.005392 and 0.006104 and 0.000476 and 0.005086
same,"PRESTO-Tango response (fig. S1), single replicate",HTLA cells; concentration 3.91e-6 M,0.0059 and 0.008908 and 0.007295 and 0.003528 and 0.003903 and 0.003563 and 0.006271 and 0.01085 and 0.002976
same,"PRESTO-Tango response (fig. S1), single replicate",HTLA cells; concentration 7.81e-6 M,0.01035 and 0.005294 and 0.00767 and 0.001374 and 0.003682 and 0.00304 and 0.005677 and 0.00324 and 0.000748
same,"PRESTO-Tango response (fig. S1), single replicate",HTLA cells; concentration 1.56e-5 M,0.005663 and 0.003492 and 0.001779 and 0.006047 and 0.000809 and 0.001829 and 0.006081 and 0.002266 and 0.003388
same,"PRESTO-Tango response (fig. S1), single replicate",HTLA cells; concentration 3.13e-5 M,0.005015 and 0.001994 and 0.006447 and 0.00774 and 0.01014 and 0.004442 and 0.006627 and 0.005281 and 0.005885
same,"PRESTO-Tango response (fig. S1), single replicate",HTLA cells; concentration 6.25e-5 M,0.00323 and 0.00222 and 0.005079 and 0.001882 and 0.000357 and 0.003112 and 0.002446 and 0.001662 and 0.004291
same,"PRESTO-Tango response (fig. S1), single replicate",HTLA cells; concentration 0.00025 M,0.00362 and 0.004413 and 0.002642 and 0.006045 and 0.000923 and 0.008313 and 0.004252 and 0.005811 and 0.003669
same,"PRESTO-Tango response (fig. S1), single replicate",HTLA cells; concentration 0.0005 M,0.004877 and 0.00565 and 0.005098 and 0.004157 and 0.003595 and 0.001306 and 0.008836 and 0.005548 and 0.00448
same,"PRESTO-Tango response (fig. S1), single replicate",HTLA cells; concentration 0.001 M,0.000524 and 0.002159 and 0.001733 and 0.007522 and 0.000243 and 0.003444 and 0.004679 and 0.004321 and 0.006568
